Experiments:
[1] = Stability of THAP in dog plasma; type: in vitro ADME; details: for Plasma Stability (Mean %) Long-Term (−70 °C): 32 days; for Plasma Stability (Mean %) Long-Term (−70 °C) / Plasma Stability (Mean %) 4 °C (7 h) / Plasma Stability (Mean %) Autosampler (44 h, 10 °C) / Plasma Stability (Mean %) Freeze-Thaw Stability (5 Cycles) / Plasma Stability (Mean %) Room Temperature (7 h) / Plasma Stability (Mean %) −70 °C (7 h): n = 3
Experimental: (§1) The stability of THAP in rat and dog plasma was examined under the following conditions at concentrations of 0.3, 25, and 80 µg/mL (n = 3): freeze-thaw stability after five freeze-thaw cycles at −70 °C; short-term stability at room temperature, 4 °C, and −70 °C for 7 h; autosampler stability at 10 °C for 44 h; and long-term stability at −70 °C for 56 days and 32 days in rat and dog plasma, respectively. The stability of the stock solution at low (0.3 µg/mL) and high (80 µg/mL) QC concentrations (n = 3) stored at room temperature for 7 h was also tested by comparing their peak areas to those of freshly prepared stock solutions.

[2] = Stability of THAP in rat plasma; type: in vitro ADME; details: for Plasma Stability (Mean %) Long-Term (−70 °C): 56 days; for Plasma Stability (Mean %) Long-Term (−70 °C) / Plasma Stability (Mean %) 4 °C (7 h) / Plasma Stability (Mean %) Autosampler (44 h, 10 °C) / Plasma Stability (Mean %) Freeze-Thaw Stability (5 Cycles) / Plasma Stability (Mean %) Room Temperature (7 h) / Plasma Stability (Mean %) −70 °C (7 h): n = 3
Experimental: as §1

[3] = Pharmacokinetic study of orally administered THAP in rats (LC-MS/MS of plasma, noncompartmental analysis); type: in vivo, Sprague Dawley rats; details: for AUC(0-t) / Cmax / Tmax / half-life: plasma, rat, mean ± SD, n = 5
Experimental: (§2) Healthy Sprague Dawley rats (n = 15, mean ± SD weight 261.4 ± 6.8 g) and beagle dogs (n = 10, mean ± SD weight 9.85 ± 0.60 kg) were purchased from Orient Bio Inc. (Seongnam, Korea). The animals were kept in a light-controlled room at 22 ± 2 °C with relative humidity of 55 ± 5% in the Animal Center of Korea Preclinical Center (Gyeonggi-do, Korea). The pharmacokinetic study protocols (KPC-E2019099 for rats and KPC-M2019046 for dogs) were approved by the Animal Care and Use Committee of the Korea Preclinical Center (Gyeonggi-do, Korea).
(§3) Chromatographic separation was performed using an Agilent 1200 Series HPLC (Agilent Technologies, Inc., Palo Alto, CA, USA) system with a Gemini C18 column (50 × 2.0 mm, 3 µm, Phenomenex, Torrance, CA, USA) protected by a guard column at 40 °C. The mobile phase composed of 10 mM ammonium formate in water and methanol (10:90, v/v) was isocratically pumped into the HPLC system at a flow rate of 0.2 mL/min with a total run time of 2.5 min. The column was eluted into an API 4000 triple quadrupole mass spectrometer (Applied Biosystems, Framingham, Massachusetts, USA), operating in the multiple reaction monitoring (MRM) mode with a negative ion electrospray source. The optimized instrument settings were as follows: curtain gas flow of 20 L/h; collision gas flow of 6 L/h; ion source gas 1 pressure of 50 psi; ion source gas 2 pressure of 60 psi; ion spray voltage of −4500 V; and temperature of 500 °C. The precursor ions of THAP and IS were generated using declustering potentials of −100 and −75 V, respectively, and they were fragmented at a collision energy of −28 and −24 eV, respectively. The molecular mass transitions from precursor to product ion were optimized at m/z 166.89 > 82.8 for THAP and at 152.89 > 82.8 for IS. Data were processed using Analyst® program (Ver. 1.6.2, AB SCIEX, Toronto, ON, Canada).
(§4) Plasma samples were stored in a deep freezer at −70 °C and thawed at room temperature. An aliquot of each plasma sample (10 μL) was transferred to 1.75 mL microtubes (Axygen Scientific, Inc., California, USA). In each microtube, 20 μL of IS (2 μg/mL) and 500 μL of 100% cold acetonitrile were added and then vortexed for 10 min. After centrifugation at 20,800× g for 15 min, 50 μL of the supernatant was pipetted into a 2.0 mL microtube and diluted with 350 μL of 50% acetonitrile (v/v). After being vortexed for 10 min and centrifuged at 20,800× g at 4 °C for 10 min, a 2 μL aliquot was injected into the LC-MS/MS system for quantitation.
(§5) Male rats orally received a single dose of THAP (250, 500, or 750 mg/kg) dissolved in deionized water containing 2% CMC by gavages. Serial blood samples (0.22 mL each) were collected via the right jugular vein immediately before (0 h) and at 0.5, 1, 2, 3, 4, 6, 9, 12, 24, and 48 h (n = 5 per each sample time) post-dosing. Male dogs received a single oral dose of THAP tablet (500 mg) as either an immediate-release tablet (Group 1) or a sustained-release tablet (Group 2) (Table 5). Blood samples (1.0 mL) were drawn from a median vein of a forelimb at the following time points after the administration of THAP: 0.5, 1, 1.5, 2, 3, 4, 6, 8, 12, and 24 h (n = 5 per each sample time). After sampling blood from the animals, the cannula was flushed with an equal volume of heparinized saline solution (50 U/mL) to prevent coagulation and to replace the blood loss. Heparin was used as an anticoagulant throughout the study procedure. Plasma was harvested by centrifugation at 4 °C, 1700× g for 10 min and then stored at −70 °C before quantification. Noncompartmental analysis was performed to calculate the AUClast and T1/2 of THAP using WinNonlin version 8.1 (Pharsight Corporation, Mountain View, CA). The Cmax and Tmax of THAP were determined based on the individual plasma THAP concentration–time profiles.

[4] = Pharmacokinetic study of oral THAP IR or SR tablets in dogs (LC-MS/MS of plasma, noncompartmental analysis); type: in vivo; details: male, beagle; for AUC(0-t) / Cmax / Tmax / half-life: dog, plasma, po, 500 mg, mean ± SD, n = 5
Experimental: as §2, §3, §4, §5

[5] = Stability of THAP stock solution at room temperature; type: physicochemical; details: room temperature 7 h, n = 3
Experimental: as §1

[6] = range over 0.3, 25 and 80 µg/mL
[7] = male, Sprague Dawley, oral 250 mg/kg aqueous solution (Group 1)
[8] = male, Sprague Dawley, oral 500 mg/kg aqueous solution (Group 2)
[9] = male, Sprague Dawley, oral 750 mg/kg aqueous solution (Group 3)
[10] = oral 500 mg THAP immediate-release tablet (Group 1)
[11] = oral 500 mg THAP sustained-release tablet (Group 2)

Plasma Stability (Mean %) Long-Term (−70 °C) ([1]; nominal 0.3 µg/mL): 102.89%
Plasma Stability (Mean %) 4 °C (7 h) ([1]; nominal 0.3 µg/mL): 111.89%
Plasma Stability (Mean %) Autosampler (44 h, 10 °C) ([1]; nominal 0.3 µg/mL): 99.67%
Plasma Stability (Mean %) Freeze-Thaw Stability (5 Cycles) ([1]; nominal 0.3 µg/mL): 101.33%
Plasma Stability (Mean %) Room Temperature (7 h) ([1]; nominal 0.3 µg/mL): 109.89%
Plasma Stability (Mean %) −70 °C (7 h) ([1]; nominal 0.3 µg/mL): 109.56%
Plasma Stability (Mean %) Long-Term (−70 °C) ([1]; nominal 25 µg/mL): 103.95%
Plasma Stability (Mean %) 4 °C (7 h) ([1]; nominal 25 µg/mL): 105.57%
Plasma Stability (Mean %) Autosampler (44 h, 10 °C) ([1]; nominal 25 µg/mL): 106.75%
Plasma Stability (Mean %) Freeze-Thaw Stability (5 Cycles) ([1]; nominal 25 µg/mL): 105.31%
Plasma Stability (Mean %) Room Temperature (7 h) ([1]; nominal 25 µg/mL): 106.66%
Plasma Stability (Mean %) −70 °C (7 h) ([1]; nominal 25 µg/mL): 105.88%
Plasma Stability (Mean %) Long-Term (−70 °C) ([1]; nominal 80 µg/mL): 99.45%
Plasma Stability (Mean %) 4 °C (7 h) ([1]; nominal 80 µg/mL): 98.87%
Plasma Stability (Mean %) Autosampler (44 h, 10 °C) ([1]; nominal 80 µg/mL): 97.58%
Plasma Stability (Mean %) Freeze-Thaw Stability (5 Cycles) ([1]; nominal 80 µg/mL): 98.41%
Plasma Stability (Mean %) Room Temperature (7 h) ([1]; nominal 80 µg/mL): 98.17%
Plasma Stability (Mean %) −70 °C (7 h) ([1]; nominal 80 µg/mL): 97.32%
long-term stability at −70 °C for 32 days [1, 6]: 99.45–103.95%
stability in the autosampler at 10 °C for 44 h [1, 6]: 97.58–106.75%
stability over five freeze-thaw cycles [1, 6]: 98.41–105.31%
Plasma Stability (Mean %) Long-Term (−70 °C) ([2]; nominal 0.3 µg/mL): 111.67%
Plasma Stability (Mean %) 4 °C (7 h) ([2]; nominal 0.3 µg/mL): 99.22%
Plasma Stability (Mean %) Autosampler (44 h, 10 °C) ([2]; nominal 0.3 µg/mL): 105.00%
Plasma Stability (Mean %) Freeze-Thaw Stability (5 Cycles) ([2]; nominal 0.3 µg/mL): 101.00%
Plasma Stability (Mean %) Room Temperature (7 h) ([2]; nominal 0.3 µg/mL): 98.22%
Plasma Stability (Mean %) −70 °C (7 h) ([2]; nominal 0.3 µg/mL): 98.11%
Plasma Stability (Mean %) Long-Term (−70 °C) ([2]; nominal 25 µg/mL): 104.15%
Plasma Stability (Mean %) 4 °C (7 h) ([2]; nominal 25 µg/mL): 106.91%
Plasma Stability (Mean %) Autosampler (44 h, 10 °C) ([2]; nominal 25 µg/mL): 104.80%
Plasma Stability (Mean %) Freeze-Thaw Stability (5 Cycles) ([2]; nominal 25 µg/mL): 102.84%
Plasma Stability (Mean %) Room Temperature (7 h) ([2]; nominal 25 µg/mL): 101.62%
Plasma Stability (Mean %) −70 °C (7 h) ([2]; nominal 25 µg/mL): 109.87%
Plasma Stability (Mean %) Long-Term (−70 °C) ([2]; nominal 80 µg/mL): 99.39%
Plasma Stability (Mean %) 4 °C (7 h) ([2]; nominal 80 µg/mL): 100.98%
Plasma Stability (Mean %) Autosampler (44 h, 10 °C) ([2]; nominal 80 µg/mL): 100.58%
Plasma Stability (Mean %) Freeze-Thaw Stability (5 Cycles) ([2]; nominal 80 µg/mL): 99.62%
Plasma Stability (Mean %) Room Temperature (7 h) ([2]; nominal 80 µg/mL): 100.47%
Plasma Stability (Mean %) −70 °C (7 h) ([2]; nominal 80 µg/mL): 101.61%
long-term stability at −70 °C for 56 days [2, 6]: 99.39–111.67%
stability in the autosampler at 10 °C for 44 h [2, 6]: 100.58–105.00%
stability over five freeze-thaw cycles [2, 6]: 99.62–102.84%
AUC(0-t) [3, 7]: 80.9 ± 11.8 µg·h/mL
Cmax [3, 7]: 64200 ± 16300 ng/mL
Tmax [3, 7]: 0.5 h
half-life [3, 7]: 11.3 ± 0.9 h
AUC(0-t) [3, 8]: 150 ± 35.8 µg·h/mL
Cmax [3, 8]: 81300 ± 32300 ng/mL
Tmax [3, 8]: 0.5 h
half-life [3, 8]: 8.3 ± 1.2 h
AUC(0-t) [3, 9]: 302 ± 113 µg·h/mL
Cmax [3, 9]: 147000 ± 44600 ng/mL
Tmax [3, 9]: 0.5 h
half-life [3, 9]: 8 ± 1.5 h
concentration at 12 h ([3]; male, Sprague Dawley, rat plasma sample of R06, 12 h after oral administration of THAP 500 mg/kg, read-out: measured plasma concentration of THAP): 374 ng/mL
plasma THAP concentrations close to the peak concentration ([3]; rats, THAP dose of 500 mg/kg and 750 mg/kg, above ULOQ): greater than 100 µg/mL
AUC(0-t) [4, 10]: 89.9 ± 32.8 µg·h/mL
Cmax [4, 10]: 24500 ± 5000 ng/mL
Tmax [4, 10]: 1 ± 1.1 h
half-life [4, 10]: 6.1 ± 4.6 h
AUC(0-t) [4, 11]: 130 ± 49.4 µg·h/mL
Cmax [4, 11]: 18800 ± 8500 ng/mL
Tmax [4, 11]: 6 ± 1.6 h
half-life [4, 11]: 6.4 ± 1.6 h
concentration at 24 h ([4]; dog plasma sample of R05, 24 h after oral administration of THAP 500 mg immediate-release tablet, read-out: measured plasma concentration of THAP): 302 ng/mL
mean percentage peak area of stock solution vs freshly prepared stock solution ([5]; 0.3 µg/mL): 102.15%
mean percentage peak area of stock solution vs freshly prepared stock solution ([5]; 80 µg/mL): 100.92%
Structure (SMILES): CC(=O)c1c(O)cc(O)cc1O [THAP, 2′,4′,6′-trihydroxyacetophenone]

— article PMC7583961, “Development and Validation of an LC-MS/MS Assay to Quantitate 2′,4′,6′-Trihydroxyacetophenone in Rat and Dog Plasma and its Application to a Pharmacokinetic Study” (Molecules, 2020)
